Assay results: ChEMBL document CHEMBL1201862, “PubChem BioAssay data set” (2004)
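Dose response: 5 concentrations. Exposure: 48 h. Format: 96-well plates. Endpoint: linear interpolation; highest concentration if not reached. At the GI50, growth is halved.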 Calls of active or inactive are those of the source. Rule as the data show it: active = GI50 up to about 1.1 µM and inactive = higher.

What was measured:
Assay in all cases: inhibition of tumour cell growth, NCI panel, 48 h
A498 = tested on: A498
CAKI-1 = tested on: CAKI-1
HCT-116 = tested on: HCT-116
HCT-15 = tested on: HCT-15
HOP-62 = tested on: HOP-62
KM12 = tested on: KM12
MDA-MB-231 = tested on: MDA-MB-231
MDA-MB-435 = tested on: MDA-MB-435
NCI-H226 = tested on: NCI-H226
NCI-H23 = tested on: NCI-H23
NCI-H460 = tested on: NCI-H460
NCI/ADR-RES = tested on: NCI/ADR-RES
OVCAR-4 = tested on: OVCAR-4
SK-MEL-5 = tested on: SK-MEL-5
SN12C = tested on: SN12C
SNB-19 = tested on: SNB-19
UACC-257 = tested on: UACC-257
UACC-62 = tested on: UACC-62
UO-31 = tested on: UO-31
RXF 393 = tested on: RXF 393

Row | SMILES | GI50 (A498) | GI50 (CAKI-1) | GI50 (HCT-116) | GI50 (HCT-15) | GI50 (HOP-62) | GI50 (KM12) | GI50 (MDA-MB-231) | GI50 (MDA-MB-435) | GI50 (NCI-H226) | GI50 (NCI-H23) | GI50 (NCI-H460) | GI50 (NCI/ADR-RES) | GI50 (OVCAR-4) | GI50 (SK-MEL-5) | GI50 (SN12C) | GI50 (SNB-19) | GI50 (UACC-257) | GI50 (UACC-62) | GI50 (UO-31) | GI50 (RXF 393)
1 | CC(=O)OCC1=CC2OC(=O)C3=COC(OC4OC(CO)C(O)C(O)C4O)C1C32 (configuration not stated) | > 100 µM (inactive) | > 100 µM (inactive) | > 100 µM (inactive) | > 100 µM | > 100 µM (inactive) | > 100 µM (inactive) | > 100 µM (inactive) | > 100 µM (inactive) | > 100 µM (inactive) | > 100 µM (inactive) | > 10 µM (inactive) | > 100 µM (inactive) | > 100 µM (inactive) | > 100 µM (inactive) | > 100 µM (inactive) | > 100 µM (inactive) | > 100 µM (inactive) | > 100 µM (inactive) | > 100 µM (inactive) | –
2 | O=c1[nH]c(Nc2nc3ccccc3[nH]2)nc(O)c1Cc1ccccc1 | > 100 µM (inactive) | > 100 µM (inactive) | > 100 µM (inactive) | > 100 µM | – | > 100 µM (inactive) | > 100 µM (inactive) | > 100 µM (inactive) | > 100 µM (inactive) | > 100 µM (inactive) | > 100 µM (inactive) | > 100 µM (inactive) | > 100 µM (inactive) | > 100 µM (inactive) | > 100 µM (inactive) | 67.8 µM (inactive) | > 100 µM (inactive) | > 100 µM (inactive) | > 100 µM (inactive) | –
3 | COc1ccc(C2SC(=N)Nc3c2c(C)nn3C(=O)c2ccncc2)cc1OC (configuration not stated) | – | > 10 µM (inactive) | > 10 µM (inactive) | > 10 µM | > 10 µM (inactive) | > 10 µM (inactive) | > 10 µM (inactive) | > 10 µM (inactive) | > 10 µM (inactive) | > 10 µM (inactive) | > 10 µM (inactive) | > 10 µM (inactive) | > 10 µM (inactive) | > 10 µM (inactive) | > 10 µM (inactive) | > 10 µM (inactive) | > 10 µM (inactive) | > 10 µM (inactive) | – | > 10 µM (inactive)
4 | COc1cc(/C=C2\N=C(c3ccccc3)N(c3nc4c(Cl)cc(Cl)cc4s3)C2=O)ccc1O | 17.8 µM (inactive) | 46.3 µM (inactive) | 24 µM (inactive) | 31.3 µM | 32 µM (inactive) | 25.4 µM (inactive) | 25.8 µM (inactive) | 27.5 µM (inactive) | – | – | 28.3 µM (inactive) | 31 µM (inactive) | 29.2 µM (inactive) | 24.5 µM (inactive) | 22.2 µM (inactive) | 36.6 µM (inactive) | 30.9 µM (inactive) | 25.8 µM (inactive) | 27 µM (inactive) | 20.9 µM (inactive)
5 | COc1ccccc1/N=N/C(=N\NC(=O)c1ccc(C)cc1)c1ccc(N(CCC#N)CCC#N)cc1C | 51.8 µM (inactive) | > 100 µM (inactive) | 31.6 µM (inactive) | 41.4 µM | 50.9 µM (inactive) | 41.6 µM (inactive) | 47.9 µM (inactive) | 39.5 µM (inactive) | 2.19 µM (inactive) | 28.2 µM (inactive) | 32.3 µM (inactive) | 63 µM (inactive) | 43.6 µM (inactive) | 20.8 µM (inactive) | 39.4 µM (inactive) | 97.3 µM (inactive) | 40.3 µM (inactive) | – | 61.9 µM (inactive) | 25.5 µM (inactive)
6 | Cc1cccc(C)c1NC(=O)C(=O)C(c1ccccc1Cl)S(=O)(=O)Cc1ccccc1Cl (configuration not stated) | – | 39.3 µM (inactive) | > 82.2 µM (inactive) | > 100 µM | 18 µM (inactive) | > 100 µM (inactive) | 31.1 µM (inactive) | > 100 µM (inactive) | > 100 µM (inactive) | 34.5 µM (inactive) | > 100 µM (inactive) | > 100 µM (inactive) | > 100 µM (inactive) | > 100 µM (inactive) | > 85.5 µM (inactive) | 41.5 µM (inactive) | > 100 µM (inactive) | 31.7 µM (inactive) | > 100 µM (inactive) | 29.8 µM (inactive)
7 | CCCCCCCCCCCCCCCCOC[C@H](COC(c1ccccc1)(c1ccccc1)c1ccccc1)O[PH](=S)OC (some centres not stated) | > 100 µM (inactive) | > 100 µM (inactive) | > 100 µM (inactive) | > 100 µM | – | > 100 µM (inactive) | > 100 µM (inactive) | > 100 µM (inactive) | > 100 µM (inactive) | > 100 µM (inactive) | > 100 µM (inactive) | > 100 µM (inactive) | – | > 100 µM (inactive) | > 100 µM (inactive) | > 100 µM (inactive) | > 100 µM (inactive) | > 100 µM (inactive) | > 100 µM (inactive) | > 100 µM (inactive)
8 | CCOC(=O)c1cc2ncccc2c2ccccc12 | – | > 100 µM (inactive) | > 100 µM (inactive) | > 100 µM | > 100 µM (inactive) | > 100 µM (inactive) | > 100 µM (inactive) | > 100 µM (inactive) | > 100 µM (inactive) | > 100 µM (inactive) | > 100 µM (inactive) | > 100 µM (inactive) | > 100 µM (inactive) | > 100 µM (inactive) | > 100 µM (inactive) | > 100 µM (inactive) | > 100 µM (inactive) | > 100 µM (inactive) | > 100 µM (inactive) | > 100 µM (inactive)
9 | CC1(C)OC(=O)C(=Cc2ccc([N+](=O)[O-])s2)C(=O)O1 | 22.5 µM (inactive) | 15.6 µM (inactive) | 2.4 µM (inactive) | 3.18 µM | 18.2 µM (inactive) | 14.7 µM (inactive) | 18.9 µM (inactive) | 14.9 µM (inactive) | 23.5 µM (inactive) | 18.1 µM (inactive) | 56.6 µM (inactive) | 18.5 µM (inactive) | – | 16.2 µM (inactive) | 16.1 µM (inactive) | 16.5 µM (inactive) | 18.6 µM (inactive) | – | 10.8 µM (inactive) | –
10 | C=C1C(=O)O[C@@H]2C[C@@]3(C)CC(=O)C=C(C)[C@@H]3C[C@H]12 | > 10 µM (inactive) | 8.36 µM (inactive) | 5.32 µM (inactive) | 4.03 µM | 18 µM (inactive) | 18.6 µM (inactive) | 16.9 µM (inactive) | 5.66 µM (inactive) | 36.8 µM (inactive) | 13.8 µM (inactive) | – | 11.3 µM (inactive) | 9.1 µM (inactive) | 10 µM (inactive) | 11.1 µM (inactive) | 17.3 µM (inactive) | 12.2 µM (inactive) | 14.6 µM (inactive) | 11.5 µM (inactive) | 3.94 µM (inactive)
11 | S=C(N/N=C/c1ccccn1)N1CCCCC1 | < 0.0461 µM (active) | < 0.0153 µM (active) | < 0.01 µM (active) | < 0.01 µM | < 0.01 µM (active) | < 0.0262 µM (active) | < 0.01 µM (active) | 0.163 µM (active) | – | < 0.01 µM (active) | < 0.019 µM (active) | < 0.01 µM (active) | – | < 0.0198 µM (active) | < 0.0394 µM (active) | 1.23 µM (inactive) | < 0.01 µM (active) | 0.0497 µM (active) | 0.0131 µM (active) | 0.0705 µM (active)
12 | COC(=O)[C@@]12CCCC(=O)[C@@H]1[C@H]1CCCC[C@H]12 | – | > 100 µM (inactive) | > 100 µM (inactive) | > 100 µM | > 100 µM (inactive) | > 100 µM (inactive) | > 100 µM (inactive) | > 100 µM (inactive) | > 100 µM (inactive) | > 100 µM (inactive) | > 100 µM (inactive) | > 100 µM (inactive) | > 100 µM (inactive) | > 100 µM (inactive) | > 100 µM (inactive) | > 100 µM (inactive) | > 100 µM (inactive) | > 100 µM (inactive) | > 100 µM (inactive) | > 100 µM (inactive)
13 | Clc1ccc(OCc2nnc(COc3ccc(OCc4nnc(COc5ccc(Cl)cc5Cl)o4)c(Cl)c3)o2)c(Cl)c1 | 48.3 µM (inactive) | 24.8 µM (inactive) | 44.1 µM (inactive) | 89.7 µM | 51.6 µM (inactive) | 45.7 µM (inactive) | 21.7 µM (inactive) | 42.7 µM (inactive) | 36.2 µM (inactive) | 48.1 µM (inactive) | 72.4 µM (inactive) | 24.5 µM (inactive) | – | 41.1 µM (inactive) | 40.3 µM (inactive) | 68.4 µM (inactive) | > 100 µM (inactive) | 40.5 µM (inactive) | 17.9 µM (inactive) | 20.1 µM (inactive)
14 | Cc1nc(C(N)=S)sc1/C(CC(=O)C(=O)Nc1cccc2ccc(O)cc12)=N\NC(=O)c1ccncc1 | – | > 100 µM (inactive) | 55.8 µM (inactive) | 41.9 µM | 37.5 µM (inactive) | > 100 µM (inactive) | > 100 µM (inactive) | > 100 µM (inactive) | 61.1 µM (inactive) | > 100 µM (inactive) | 22.9 µM (inactive) | > 100 µM (inactive) | 49.9 µM (inactive) | 33.2 µM (inactive) | 35.1 µM (inactive) | 73.5 µM (inactive) | > 100 µM (inactive) | 29.5 µM (inactive) | 98.2 µM (inactive) | > 100 µM (inactive)
15 | O=C1C=C2CO[C@H]3OC[C@H](O)[C@@H]1[C@@H]23 | > 100 µM (inactive) | 29 µM (inactive) | 88.1 µM (inactive) | 44 µM | > 100 µM (inactive) | > 100 µM (inactive) | 73.3 µM (inactive) | 30.9 µM (inactive) | – | > 100 µM (inactive) | > 100 µM (inactive) | > 100 µM (inactive) | – | > 100 µM (inactive) | 22.9 µM (inactive) | > 100 µM (inactive) | 29.8 µM (inactive) | 67.5 µM (inactive) | 37.3 µM (inactive) | 19.9 µM (inactive)
